Experimental data published in ChEMBL document CHEMBL6121052, “Design of ROS-Triggered Sesquiterpene Lactone SC Prodrugs as TrxR1 Covalent Inhibitors for the Treatment of Non-Small Cell Lung Cancer” (J Med Chem, 2025).
Active and inactive are the calls of the source. The calls are words filed in the database; no cut-off is given here.

Key:
[1] = Toxicity in BALB/c mouse assessed as kidney damage at 5 to 10 mg/kg, po administered every 2 days for 2 weeks by H and E staining based analysis; format: organism-based; details: in vivo, 336 h, dose 5-10 mg/kg
[2] = biological target: T1, Thioredoxin reductase 1, cytoplasmic (Homo sapiens) (UniProt Q16881); experiment: Inhibition of TrxR1 in human NCI-H2291 cells; format: cell-based; details: dose <= 10.0 µM
T1 sequence (whole entry): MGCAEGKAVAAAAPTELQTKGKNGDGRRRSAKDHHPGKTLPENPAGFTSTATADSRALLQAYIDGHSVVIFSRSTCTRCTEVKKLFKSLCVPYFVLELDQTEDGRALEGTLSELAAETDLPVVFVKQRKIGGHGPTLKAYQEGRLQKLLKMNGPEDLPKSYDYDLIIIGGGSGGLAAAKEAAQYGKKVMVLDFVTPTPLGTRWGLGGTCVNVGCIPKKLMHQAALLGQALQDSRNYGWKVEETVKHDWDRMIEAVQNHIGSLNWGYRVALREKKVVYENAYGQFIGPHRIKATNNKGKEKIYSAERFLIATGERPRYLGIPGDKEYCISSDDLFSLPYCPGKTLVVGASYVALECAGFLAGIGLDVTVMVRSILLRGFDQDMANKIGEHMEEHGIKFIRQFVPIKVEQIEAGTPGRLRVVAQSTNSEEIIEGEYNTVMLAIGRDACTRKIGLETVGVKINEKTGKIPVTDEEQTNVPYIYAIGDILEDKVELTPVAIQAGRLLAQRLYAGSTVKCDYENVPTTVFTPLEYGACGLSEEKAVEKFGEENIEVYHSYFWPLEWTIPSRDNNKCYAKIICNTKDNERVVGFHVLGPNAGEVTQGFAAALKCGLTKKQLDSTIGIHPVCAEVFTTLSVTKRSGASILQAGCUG

[3] = test system: NCI-H1299; experiment: Induction of apoptosis in human NCI-H1299 cells assessed as early apoptotic cells at 2.5 uM measured after 48 hrs by Annexin V/FITC staining based flow cytometric analysis (reference value: 1.14 %); format: functional
[4] = test system: A549; experiment: Induction of apoptosis in human A549 cells assessed as necrotic cells at 2.5 uM measured after 48 hrs by Annexin V/FITC staining based flow cytometric analysis (reference value: 2.52 %); format: functional
[5] = test system: NCI-H1299; experiment: Induction of apoptosis in human NCI-H1299 cells assessed as necrotic cells at 10 uM measured after 48 hrs by Annexin V/FITC staining based flow cytometric analysis (reference value: 0.62%); format: functional
[6] = test system: NCI-H1299; experiment: Antitumor activity against human NCI-H1299 cells xenografted in BALB/c mouse assessed as decrease in GPX4 expression at 5 to 10 mg/kg, po administered every 2 days for 2 weeks by IHC analysis; format: functional, organism-based; details: dose 5-10 mg/kg
[7] = test system: NCI-H1299; experiment: Induction of intracellular ROS generation in human NCI-H1299 cells upto 10 uM by DCFH-DA probe based fluorescence assay; format: functional, cell-based
[8] = MRT (0 to t) in male Sprague-Dawley rat at 10 mg/kg, iv measured upto 24 hrs by LC-MS/MS analysis; format: ADME, organism-based; details: in vivo
[9] = test system: A549; experiment: Induction of apoptosis in human A549 cells assessed as early apoptotic cells at 10 uM measured after 48 hrs by Annexin V/FITC staining based flow cytometric analysis (reference value: 1.31 %); format: functional
[10] = test system: NCI-H1299; experiment: Induction of apoptosis in human NCI-H1299 cells assessed as viable cells at 10 uM measured after 48 hrs by Annexin V/FITC staining based flow cytometric analysis (reference value: 96.3%); format: functional; details: read-out: Activity
[11] = Toxicity in BALB/c mouse assessed as body weight loss at 5 to 10 mg/kg, po administered every 2 days for 2 weeks; format: organism-based; details: in vivo, 336 h, dose 5-10 mg/kg
[12] = test system: A549; experiment: Induction of apoptosis in human A549 cells assessed as late apoptotic cells at 5 uM measured after 48 hrs by Annexin V/FITC staining based flow cytometric analysis (reference value: 5.37%); format: functional
[13] = test system: NCI-H1299; experiment: Induction of ferroptosis in human NCI-H1299 cells assessed as effect on GPX4 protein expression at 10 uM incubated for 24 hrs by Western blotting analysis; format: functional, cell-based
[14] = test system: NCI-H1299; experiment: Cytotoxicity against human NCI-H1299 cells assessed as cell viability incubated for 48 hrs by MTT assay; format: functional, cell-based; details: NCI-H1299, 48 h
[15] = Toxicity in BALB/c mouse assessed as change in viscera index at 5 to 10 mg/kg, po administered every 2 days for 2 weeks; format: organism-based; details: in vivo, 336 h, dose 5-10 mg/kg
[16] = test system: A549; experiment: Induction of apoptosis in human A549 cells assessed as decrease in BCl-2 expression at upto 10 uM incubated for 24 hrs by Western blot analysis; format: functional, cell-based
[17] = test system: A549; experiment: Inhibition of colony formation in human A549 cells assessed as reduction in colony number at 4 uM incubated for 14 days by crystal violet staining based analysis; format: functional, cell-based; details: time 14.0 day
[18] = test system: A549; experiment: Induction of ferroptosis in human A549 cells assessed as increase in intracellular LPO accumulation at 5 uM incubated for 24 hrs by flow cytometry analysis; format: functional, cell-based
[19] = Clearance in male Sprague-Dawley rat at 10 mg/kg, iv measured upto 24 hrs by LC-MS/MS analysis; format: ADME, organism-based; details: in vivo
[20] = test system: NCI-H1299; experiment: Antitumor activity against human NCI-H1299 cells xenografted in po dosed BALB/c mouse assessed as reduction in tumor growth administered every 2 days for 2 weeks; format: functional, organism-based; details: dose 5-10 mg/kg
[21] = test system: NCI-H1299; experiment: Induction of apoptosis in human NCI-H1299 cells assessed as late apoptotic cells at 2.5 uM measured after 48 hrs by Annexin V/FITC staining based flow cytometric analysis (reference value: 1.96%); format: functional
[22] = test system: NCI-H1299; experiment: Induction of morphological changes in human NCI-H1299 cells assessed as increase in number of contracted shapes upto 10 uM; format: functional, cell-based
[23] = biological target: T1, Thioredoxin reductase 1, cytoplasmic (Homo sapiens); experiment: Inhibition of TrxR1 in human A549 cells; format: cell-based; details: dose <= 10.0 µM
[24] = test system: NCI-H1299; experiment: Induction of apoptosis in human NCI-H1299 cells assessed as viable cells at 5 uM measured after 48 hrs by Annexin V/FITC staining based flow cytometric analysis (reference value: 96.3%); format: functional; details: read-out: Activity
[25] = test system: A549; experiment: Induction of apoptosis in human A549 cells assessed as late apoptotic cells at 10 uM measured after 48 hrs by Annexin V/FITC staining based flow cytometric analysis (reference value: 5.37%); format: functional
[26] = test system: NCI-H1299; experiment: Induction of apoptosis in human NCI-H1299 cells assessed as necrotic cells at 5 uM measured after 48 hrs by Annexin V/FITC staining based flow cytometric analysis (reference value: 0.62%); format: functional
[27] = test system: A549; experiment: Induction of ROS accumulation in human TrxR1 knockdown A549 cells incubated for 24 hrs; format: functional, cell-based
[28] = test system: NCI-H1299; experiment: Induction of apoptosis in human NCI-H1299 cells assessed as early apoptotic cells at 5 uM measured after 48 hrs by Annexin V/FITC staining based flow cytometric analysis (reference value: 1.14 %); format: functional
[29] = test system: NCI-H1299; experiment: Induction of apoptosis in human NCI-H1299 cells assessed as increase in green fluorescence intensity upto 10 uM by AO/EB staining based fluorescence microscopic analysis; format: functional, cell-based
[30] = Toxicity in BALB/c mouse assessed as heart damage at 5 to 10 mg/kg, po administered every 2 days for 2 weeks by H and E staining based analysis; format: organism-based; details: in vivo, 336 h, dose 5-10 mg/kg

Question: Which Activity [1] does the source give for CCCNC(=O)O[C@@H]1/C=C(\C)C[C@H]2C=C(C[C@@H]3OC(=O)[C@H](CSC(=S)N(C)C)[C@H]31)C(=O)O2 here?
Answer: Non-toxic

Question: What about the inhibition [2] of the same compound?
Answer: Dose-dependent-effect

Question: What about the Activity [3] of the same compound?
Answer: 1.67%

Question: What about the Activity [4] of the same compound?
Answer: 4.09%

Question: And the Activity [5]?
Answer: 1.01%

Question: And the Activity [6]?
Answer: Active

Question: What about the Activity [7] of the same compound?
Answer: Active

Question: And the MRT last at 24 h [8]?
Answer: 4.15 h

Question: What about the Activity [9] of the same compound?
Answer: 3.68%

Question: And the viability at 10 µM [10]?
Answer: 68.6%

Question: And the Activity [11]?
Answer: Non-toxic

Question: What about the Activity [12] of the same compound?
Answer: 16.1%

Question: And the Activity [13]?
Answer: Active

Question: And the IC50 [14]?
Answer: 4.68 µM

Question: And the Activity [15]?
Answer: Non-toxic

Question: And the Activity [16]?
Answer: Active

Question: What about the inhibition [17] of the same compound?
Answer: Active

Question: What about the Activity [18] of the same compound?
Answer: Active

Question: And the clearance [19]?
Answer: 162 mL/min/kg

Question: And the Activity [20]?
Answer: Dose-dependent-effect

Question: What about the Activity [21] of the same compound?
Answer: 7.41%

Question: And the Activity [22]?
Answer: Active

Question: What about the inhibition [23] of the same compound?
Answer: Dose-dependent-effect

Question: And the viability at 5 µM [24]?
Answer: 72.7%

Question: What about the Activity [25] of the same compound?
Answer: 24.3%

Question: What about the Activity [26] of the same compound?
Answer: 1.45%

Question: And the Activity [27]?
Answer: Active

Question: And the Activity [28]?
Answer: 10.2%

Question: What about the Activity [29] of the same compound?
Answer: Active

Question: What about the Activity [30] of the same compound?
Answer: Non-toxic
